For 15 compounds, GI50 and TGI results are on record in PubChem BioAssay (NCI).

Some test systems named below: ACHN renal; DU-145 prostate; LXFL 529 NSCLC; M19-MEL melanoma; MALME-3M melanoma; MOLT-4 leukemia; SF-539 CNS; SNB-75 CNS; TK-10 renal; UO-31 renal.
Common to all, as to experiment: NCI anticancer screen, dose series, 48 h

Where “and” joins values, the source holds several entries; their conditions need not be identical. Identical values can stand only once.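 96-well plates; 48 h exposure; 5 concentrations. Endpoints by linear interpolation between flanking doses. Not reached: highest tested concentration assigned. GI50 = concentration required for 50% inhibition of growth. Definition used: TGI = concentration required for complete inhibition of growth.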 Some results are limits rather than exact numbers.

For the compound `CC1CC2C3CCC4=CC(=O)C=CC4(C)C3(F)C(O)CC2(C)C1(O)C(=O)COP(=O)(O)O` (stereo not given), the GI50 with ACHN renal, in the assay with DU-145 prostate, in the assay with MALME-3M melanoma, in the assay on MOLT-4 leukemia, in the assay with SF-539 CNS and in the assay on SNB-75 CNS was > 500 µM each time. Also, the GI50 in the assay on TK-10 renal and with UO-31 renal was > 500 µM in each case. For the same compound, the TGI in the assay on ACHN renal was > 500 µM; with DU-145 prostate it was > 500 µM; in the assay with LXFL 529 NSCLC, > 100 µM; in the assay on M19-MEL melanoma, > 100 µM; in the assay with MALME-3M melanoma, > 500 µM; with MOLT-4 leukemia, > 500 µM. Further, the TGI in the assay on SF-539 CNS, in the assay with SNB-75 CNS, with TK-10 renal and in the assay with UO-31 renal was > 500 µM each time.

With `COC(=O)CCSC(=O)Nc1ccc(N=Nc2ccccc2)cc1`, the TGI in the assay with ACHN renal, in the assay on LXFL 529 NSCLC, in the assay with M19-MEL melanoma, in the assay on MALME-3M melanoma, in the assay with MOLT-4 leukemia and in the assay on SF-539 CNS was > 100 µM throughout. For the same compound, the TGI with SNB-75 CNS, in the assay with TK-10 renal and with UO-31 renal was > 100 µM in each case.

Take `COC1=C(N)C(=O)c2nc(-c3nc(C(=O)O)c(C)c(-c4ccc(OC)c(OC)c4O)c3N)ccc2C1=O`: the TGI with ACHN renal is 0.00376 µM and 0.0263 µM and < 0.01 µM; in the assay with DU-145 prostate, 0.0409 µM and 0.0193 µM; in the assay on LXFL 529 NSCLC, 0.0206 µM; in the assay with M19-MEL melanoma, 0.0224 µM and 0.0234 µM; in the assay on MOLT-4 leukemia it was 0.0805 µM and 0.0445 µM and < 0.0167 µM; in the assay with TK-10 renal, 0.00795 µM and 0.0706 µM. In the assay with UO-31 renal, the TGI is 0.02 µM and 0.0176 µM. Moreover, the GI50 with UO-31 renal is < 0.01 µM.

In the case of `Cc1nc(N)nc(N)c1CCCCc1ccc(N)cc1`, the TGI in the assay with ACHN renal was found to be 59.2 µM; in the assay with LXFL 529 NSCLC, 20.4 µM; in the assay with M19-MEL melanoma it was 25.5 µM; in the assay with MALME-3M melanoma it was 18.2 µM; in the assay on MOLT-4 leukemia it was 35.2 µM; in the assay on SF-539 CNS, 21.7 µM. Further, the results for the TGI in the assay on SNB-75 CNS, in the assay on TK-10 renal and in the assay on UO-31 renal were 29.3 µM, 28.8 µM and > 100 µM, respectively.

For the compound `NC1NC=NC2C1N=CN2C1OC(CO)C2[O][Sn][O]C21` (stereo not given), the GI50 with ACHN renal, in the assay on LXFL 529 NSCLC, with M19-MEL melanoma, with MALME-3M melanoma, in the assay with MOLT-4 leukemia and in the assay with SF-539 CNS was > 100 µM in each case. Besides, the GI50 with SNB-75 CNS, with TK-10 renal and in the assay with UO-31 renal was > 100 µM in each case. The TGI with ACHN renal, in the assay with LXFL 529 NSCLC, in the assay with M19-MEL melanoma, in the assay on MALME-3M melanoma, with MOLT-4 leukemia and with SF-539 CNS was > 100 µM in each case. Also, the TGI in the assay on SNB-75 CNS, in the assay with TK-10 renal and in the assay with UO-31 renal was > 100 µM throughout.

On to `COc1ccccc1NC(=O)C1=C(C)NC(C)=C(C(=O)Nc2ccccc2OC)C1c1ccccc1[N+](=O)[O-]`, for which the TGI in the assay on ACHN renal was 37.5 µM; in the assay on LXFL 529 NSCLC, 25 µM; in the assay on M19-MEL melanoma, 49 µM; with MALME-3M melanoma, 36.2 µM; in the assay with MOLT-4 leukemia, 49.5 µM; in the assay with SF-539 CNS it was 37 µM. The figures for the TGI in the assay with SNB-75 CNS, with TK-10 renal and in the assay with UO-31 renal were > 100 µM, 59.2 µM and 37.6 µM, respectively.

Turning to `COc1cc[c]([Sn]([c]2ccc(OC)cc2)([c]2ccc(OC)cc2)[c]2ccc(OC)cc2)cc1`, the GI50 is 17.4 µM with ACHN renal; 15.8 µM in the assay on LXFL 529 NSCLC; 34.6 µM in the assay with M19-MEL melanoma; 3.31 µM in the assay on MALME-3M melanoma; 10.7 µM in the assay with MOLT-4 leukemia; 16.8 µM with SF-539 CNS. Further, the results for the GI50 with SNB-75 CNS, in the assay on TK-10 renal and in the assay on UO-31 renal were 24 µM, 17.9 µM and 14.1 µM, respectively. The TGI in the assay with ACHN renal is 96.7 µM; in the assay with LXFL 529 NSCLC it was 36.4 µM; with M19-MEL melanoma, > 100 µM; in the assay on MALME-3M melanoma, 8.43 µM; in the assay with MOLT-4 leukemia, 39 µM; in the assay with SF-539 CNS it was 48.6 µM. In addition, the TGI is > 100 µM in the assay on SNB-75 CNS, 51.1 µM with TK-10 renal and 38 µM in the assay on UO-31 renal.

For the compound `COC(=O)NC1C(C)OC(OC2C/C=C(/C)C3C=CC4C(OC5CC(OC6CCC(OC7CC(O)C(OC8CCC(O)C(C)O8)C(C)O7)C(C)O6)C(OC(C)=O)C(C)O5)C(C)CC(C)C4C3(C)/C(O)=C3/C(=O)OC4(CC(C=O)=CC(O)C4/C=C\2C)C3=O)CC1(C)[N+](=O)[O-]` (stereo not given), the TGI with ACHN renal was 2.72 µM; in the assay on DU-145 prostate, 5.07 µM; with LXFL 529 NSCLC, 1.97 µM; with M19-MEL melanoma, 2.02 µM and 0.473 µM; in the assay on MALME-3M melanoma it was 1.62 µM and 0.292 µM; in the assay on MOLT-4 leukemia, 4.78 µM and 0.634 µM. The TGI is 5.14 µM and 3.27 µM in the assay with SNB-75 CNS; 6.2 µM and 1.14 µM with TK-10 renal; 3.76 µM and 0.521 µM in the assay with UO-31 renal. In addition, the GI50 with M19-MEL melanoma is 0.0982 µM; in the assay on MALME-3M melanoma, 0.12 µM; in the assay with MOLT-4 leukemia, 0.131 µM; with SF-539 CNS, 0.0287 µM; with SNB-75 CNS, 1.06 µM; in the assay with TK-10 renal, 0.418 µM. For the same compound, in the assay with UO-31 renal, the GI50 was 0.254 µM.

Consider `O=[N+]([O-])c1ccc(C2=Nc3ccccc3S(=O)C(c3ccccc3)C2)cc1` (stereo not given), for which the TGI is 44.2 µM with ACHN renal; 26.7 µM with LXFL 529 NSCLC; 29.6 µM in the assay on M19-MEL melanoma; > 100 µM in the assay on MALME-3M melanoma; 57.7 µM with MOLT-4 leukemia; 45 µM in the assay on SF-539 CNS. Besides, the TGI in the assay on SNB-75 CNS turned out to be 53.3 µM; in the assay with TK-10 renal, 82.9 µM; in the assay with UO-31 renal, 32.2 µM.

In the case of `CC(C)(C)c1cc(CCC(=O)Nc2ccc(Cl)cc2)[nH]c(=S)n1`, the TGI in the assay with ACHN renal, in the assay with LXFL 529 NSCLC, with M19-MEL melanoma, in the assay on MALME-3M melanoma, in the assay with MOLT-4 leukemia and in the assay with SF-539 CNS was > 100 µM in each case. The TGI in the assay with SNB-75 CNS, in the assay on TK-10 renal and with UO-31 renal was > 100 µM throughout.

With `Cc1ccc(NC(=O)CCCC(=O)CC(=O)c2ccc(Br)cc2)cc1`, the TGI with ACHN renal, with LXFL 529 NSCLC, in the assay on M19-MEL melanoma, with MALME-3M melanoma, in the assay on MOLT-4 leukemia and in the assay on SF-539 CNS was > 100 µM in each case. For the same compound, the TGI in the assay with SNB-75 CNS, with TK-10 renal and in the assay with UO-31 renal was > 100 µM throughout.

Regarding `COC1C2C[C@@H](O)CCC2C(C(=O)OCCl)C[C@H]1O` (stereo not given in full), the TGI in the assay on ACHN renal, in the assay on LXFL 529 NSCLC, in the assay with M19-MEL melanoma, with MALME-3M melanoma, in the assay on MOLT-4 leukemia and in the assay with SF-539 CNS was > 100 µM in each case. Further, the TGI with SNB-75 CNS, with TK-10 renal and in the assay with UO-31 renal was > 100 µM each time.

On to `CC(=O)OCC1OC(n2c(=S)n(-c3ccc([N+](=O)[O-])cc3)c(=O)c3ccccc32)C(OC(C)=O)C(OC(C)=O)C1OC(C)=O` (stereo not given), for which the GI50 is 20.3 µM and 29.7 µM in the assay with ACHN renal; 11.3 µM and 17.4 µM with LXFL 529 NSCLC; 29.7 µM and 16.8 µM in the assay with M19-MEL melanoma; 7.28 µM and 19 µM with SNB-75 CNS; 19.9 µM and 40.3 µM in the assay on TK-10 renal; 12 µM and 23.2 µM in the assay on UO-31 renal. For the same compound, the TGI in the assay on ACHN renal is 97.9 µM and > 100 µM; in the assay with DU-145 prostate it was > 100 µM; in the assay with LXFL 529 NSCLC, 39.9 µM and 50.6 µM; with M19-MEL melanoma it was > 100 µM and 55.4 µM; in the assay on MALME-3M melanoma it was 38.4 µM; with MOLT-4 leukemia it was > 95.1 µM. Besides, the TGI with SF-539 CNS is 36 µM and 29.7 µM; with SNB-75 CNS it was 51 µM and 41.2 µM; with TK-10 renal, 65.2 µM and 75.1 µM; with UO-31 renal, > 57.5 µM and 60.1 µM.

For the compound `CC(C)(CN1C(=O)C(Cl)=C(Cl)C1=O)CN1C(=O)C(Cl)=C(Cl)C1=O`, the TGI in the assay with ACHN renal stood at 21.7 µM; in the assay with LXFL 529 NSCLC, 19.7 µM; in the assay with M19-MEL melanoma it was 25 µM; in the assay with MALME-3M melanoma, 16.7 µM; in the assay with MOLT-4 leukemia it was 30.1 µM; in the assay with SF-539 CNS it was 38.8 µM. For the same compound, the TGI in the assay on SNB-75 CNS stood at 50.7 µM; with TK-10 renal it was 22.2 µM; in the assay with UO-31 renal, 47.2 µM.

For the compound `C[C@H]1CC[P+](Cc2ccccc2)(c2ccccc2)C1` (stereo not given in full), the TGI with ACHN renal, in the assay with LXFL 529 NSCLC, in the assay with M19-MEL melanoma, in the assay on MALME-3M melanoma, in the assay on MOLT-4 leukemia and in the assay on SF-539 CNS was > 100 µM in each case. For the same compound, the TGI in the assay with SNB-75 CNS, in the assay on TK-10 renal and with UO-31 renal was > 100 µM in each case.
